According to patent US20210403485A1, “PYRAZOLOPYRIMIDINE DERIVATIVE AS SELECTIVE TRK INHIBITOR” (SHANDONG LUYE PHARMACEUTICAL CO., LTD., priority 2018, published 2021):
Like-named read-outs stand apart in the source and are kept apart here.

Assays:
[1] = system: Ba/F3 ETV6-NTRK3 cells; test: Efficacy test in animals: subcutaneous xenograft, intragastric administration; assay type: in vivo, nude mice; settings: for TGI (tumor growth inhibition rate): day of dissection; for Tumor inhibition rate (by tumor weight) / Tumor weight: end of the test
Method: Cells in the logarithmic growth phase were collected and resuspended in serum-free medium to a cell concentration of 2-4×10^7 cells/mL. An equal volume of matrigel was added to the cell suspension to achieve a final cell concentration of 1-2×10^7 cells/mL. 0.2 mL of tumor cell suspension was subcutaneously inoculated at the scapula of each nude mouse with the inoculation amount of 2-4×10^6 cells/mouse to prepare the animal models.

[2] = molecular target: T1, BaF3 LMNA-NTRK1-G595R (Homo sapiens, UniProt P04629, G595R, cells depend on it); test: Inhibitory activity against cell proliferation (CellTiter-Glo, 72 hours); assay type: cell-based; settings: read-out: Half maximal inhibitory concentration IC50 of cells, BaF3 LMNA-NTRK1-G595R
T1 construct: fused on or other part: N-terminal part of LMNA as fusion partner (part of the key); P02545 (Prelamin-A/C)
Method in brief: (§1)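 Log-phase Ba/F3 cells (trypan blue viability above 90%) were treated in triplicate with a 9-point, 3-fold compound series. ATP-dependent luminescence was read after CellTiter-Glo addition, and IC50 values came from nonlinear sigmoidal dose-response fits.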

[3] = molecular target: T2, BaF3 ETV6-NTRK3-WT (Homo sapiens, UniProt Q16288); test: as above; assay type: cell-based; settings: read-out: Half maximal inhibitory concentration IC50 of cells, BaF3 ETV6-NTRK3-WT
T2 construct: fused on or other part: N-terminal part of ETV6 (TEL) as fusion partner (part of the key); P41212 (Transcription factor ETV6)
Method in brief: as §1

[4] = molecular target: T3, Ba/F3 LMNA-NTRK1-WT (Homo sapiens, UniProt P04629); test: as above; assay type: cell-based; settings: read-out: Half maximal inhibitory concentration IC50 of cells, Ba/F3 LMNA-NTRK1-WT
T3 construct: fused on or other part: N-terminal part of LMNA as fusion partner (part of the key); P02545 (Prelamin-A/C)
Method in brief: as §1

[5] = molecular target: T4, BaF3 LMNA-NTRK1-G667A (Homo sapiens, UniProt P04629, G667A, cells depend on it); test: as above; assay type: cell-based; settings: read-out: Half maximal inhibitory concentration IC50 of cells, BaF3 LMNA-NTRK1-G667A
T4 construct: fused on or other part: N-terminal part of LMNA as fusion partner (part of the key); P02545 (Prelamin-A/C)
Method in brief: as §1

[6] = molecular target: T5, Ba/F3 LMNA-NTRK1-F589L (Homo sapiens, UniProt P04629, F589L, cells depend on it); test: as above; assay type: cell-based; settings: read-out: Half maximal inhibitory concentration IC50 of cells, Ba/F3 LMNA-NTRK1-F589L
T5 construct: fused on or other part: N-terminal part of LMNA as fusion partner (part of the key); P02545 (Prelamin-A/C)
Method in brief: as §1

[7] = Pharmacokinetic test of compounds in rats (plasma, LC/MS/MS); assay type: in vivo, male SD rats; settings: for AUC(0-t): read-out: Area under the curve AUC0-last
Method in brief: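 Male SD rats, 7-9 weeks old, given single IV (3 mg/kg) or intragastric PO (10 mg/kg) doses in 5% DMSO/10% solutol/85% water. Plasma drug levels measured by LC/MS/MS at several time points to derive PK parameters.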

T3 sequence (P04629 whole entry, change not shown, the tested form may be a part): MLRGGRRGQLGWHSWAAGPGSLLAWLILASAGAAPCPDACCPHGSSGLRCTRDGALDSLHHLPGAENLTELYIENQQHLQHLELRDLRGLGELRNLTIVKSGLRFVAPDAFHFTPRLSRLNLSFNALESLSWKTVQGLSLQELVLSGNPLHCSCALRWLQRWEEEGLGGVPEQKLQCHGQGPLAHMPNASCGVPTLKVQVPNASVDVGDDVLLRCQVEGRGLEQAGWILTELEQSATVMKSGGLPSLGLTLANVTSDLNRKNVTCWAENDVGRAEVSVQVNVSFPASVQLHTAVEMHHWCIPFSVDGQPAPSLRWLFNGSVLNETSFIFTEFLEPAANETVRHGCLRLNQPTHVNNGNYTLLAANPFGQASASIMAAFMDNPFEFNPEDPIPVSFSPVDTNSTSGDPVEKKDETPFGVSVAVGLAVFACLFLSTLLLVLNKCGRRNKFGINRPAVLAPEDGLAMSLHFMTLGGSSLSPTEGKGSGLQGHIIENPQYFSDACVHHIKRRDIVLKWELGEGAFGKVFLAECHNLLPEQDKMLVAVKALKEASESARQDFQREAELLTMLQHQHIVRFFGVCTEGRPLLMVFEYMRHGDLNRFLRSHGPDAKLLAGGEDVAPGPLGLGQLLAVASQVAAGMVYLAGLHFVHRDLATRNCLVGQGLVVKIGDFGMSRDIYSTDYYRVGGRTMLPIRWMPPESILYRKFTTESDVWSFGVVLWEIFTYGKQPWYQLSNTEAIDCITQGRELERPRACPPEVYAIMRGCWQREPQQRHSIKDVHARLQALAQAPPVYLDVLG
T5 sequence (P04629 whole entry F589L, the tested form may be a part): as the sequence (P04629 whole entry, change not shown, the tested form may be a part) above, with F589L counted along it
T2 sequence (Q16288 whole entry, change not shown, the tested form may be a part): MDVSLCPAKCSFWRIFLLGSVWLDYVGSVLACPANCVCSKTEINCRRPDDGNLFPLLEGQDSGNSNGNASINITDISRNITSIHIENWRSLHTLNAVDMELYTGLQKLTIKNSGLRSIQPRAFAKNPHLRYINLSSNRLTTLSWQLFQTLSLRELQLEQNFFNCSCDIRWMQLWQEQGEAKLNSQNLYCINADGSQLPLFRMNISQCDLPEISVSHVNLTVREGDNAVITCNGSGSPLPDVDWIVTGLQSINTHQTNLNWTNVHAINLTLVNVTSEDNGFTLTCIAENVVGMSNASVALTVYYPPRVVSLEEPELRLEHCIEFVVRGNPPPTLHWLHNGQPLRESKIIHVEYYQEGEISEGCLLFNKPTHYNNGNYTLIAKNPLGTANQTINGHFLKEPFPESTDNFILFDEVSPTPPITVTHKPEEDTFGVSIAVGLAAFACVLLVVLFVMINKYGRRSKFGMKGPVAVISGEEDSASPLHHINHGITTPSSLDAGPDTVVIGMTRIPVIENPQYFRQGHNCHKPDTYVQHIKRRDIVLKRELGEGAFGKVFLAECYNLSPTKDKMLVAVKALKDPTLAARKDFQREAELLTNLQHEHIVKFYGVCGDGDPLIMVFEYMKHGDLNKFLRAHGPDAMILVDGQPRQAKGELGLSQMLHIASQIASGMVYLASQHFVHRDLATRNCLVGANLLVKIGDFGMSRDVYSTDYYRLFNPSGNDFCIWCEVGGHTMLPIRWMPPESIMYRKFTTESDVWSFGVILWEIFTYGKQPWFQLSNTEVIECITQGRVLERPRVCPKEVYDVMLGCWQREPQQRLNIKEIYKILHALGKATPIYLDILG
T4 sequence (P04629 whole entry G667A, the tested form may be a part): as the sequence (P04629 whole entry, change not shown, the tested form may be a part) above, with G667A counted along it
T1 sequence (P04629 whole entry G595R, the tested form may be a part): as the sequence (P04629 whole entry, change not shown, the tested form may be a part) above, with G595R counted along it

Structure (SMILES): O=C1NC2(CC2)COc2ncc(F)cc2C2COCCN2c2ccn3ncc1c3n2 (single isomer, unassigned) [WX001B]
- Tumor volume ([1]; Day 0, 10 mg/kg bid): 303.14 ± 45.09 mm^3
- Relative tumor proliferation rate T/C ([1]; Day 0, 20 mg/kg bid): 100.00%
- Tumor volume ([1]; Day 0, 20 mg/kg bid): 303.47 ± 45.79 mm^3
- Relative tumor proliferation rate T/C ([1]; Day 3, 2.5 mg/kg bid): 42.59%
- Tumor volume ([1]; Day 3, 2.5 mg/kg bid): 360.24 ± 88.80 mm^3
- Relative tumor proliferation rate T/C ([1]; Day 3, 5 mg/kg bid): 43.90%
- Tumor volume ([1]; Day 3, 5 mg/kg bid): 371.36 ± 111.74 mm^3
- Relative tumor proliferation rate T/C ([1]; Day 3, 10 mg/kg bid): 30.18%
- Tumor volume ([1]; Day 3, 10 mg/kg bid): 255.24 ± 87.04 mm^3
- Relative tumor proliferation rate T/C ([1]; Day 3, 20 mg/kg bid): 31.16%
- Tumor volume ([1]; Day 3, 20 mg/kg bid): 263.60 ± 85.49 mm^3
- Relative tumor proliferation rate T/C ([1]; Day 5, 2.5 mg/kg bid): 29.79%
- Tumor volume ([1]; Day 5, 2.5 mg/kg bid): 376.59 ± 84.87 mm^3
- Relative tumor proliferation rate T/C ([1]; Day 5, 5 mg/kg bid): 22.33%
- Tumor volume ([1]; Day 5, 5 mg/kg bid): 282.31 ± 46.30 mm^3
- Relative tumor proliferation rate T/C ([1]; Day 5, 10 mg/kg bid): 19.15%
- Tumor volume ([1]; Day 5, 10 mg/kg bid): 242.09 ± 78.53 mm^3
- Relative tumor proliferation rate T/C ([1]; Day 5, 20 mg/kg bid): 22.72%
- Tumor volume ([1]; Day 5, 20 mg/kg bid): 287.22 ± 96.26 mm^3
- Relative tumor proliferation rate T/C ([1]; Day 7, 2.5 mg/kg bid): 18.12%
- Tumor volume ([1]; Day 7, 2.5 mg/kg bid): 388.09 ± 100.42 mm^3
- Relative tumor proliferation rate T/C ([1]; Day 7, 5 mg/kg bid): 16.77%
- Tumor volume ([1]; Day 7, 5 mg/kg bid): 353.35 ± 109.82 mm^3
- Relative tumor proliferation rate T/C ([1]; Day 7, 10 mg/kg bid): 12.50%
- Tumor volume ([1]; Day 7, 10 mg/kg bid): 263.53 ± 134.53 mm^3
- Relative tumor proliferation rate T/C ([1]; Day 7, 20 mg/kg bid): 9.56%
- Tumor volume ([1]; Day 7, 20 mg/kg bid): 201.43 ± 135.76 mm^3
- Relative tumor proliferation rate T/C ([1]; Day 9, 2.5 mg/kg bid): 18.22%
- Tumor volume ([1]; Day 9, 2.5 mg/kg bid): 499.09 ± 161.54 mm^3
- Relative tumor proliferation rate T/C ([1]; Day 9, 5 mg/kg bid): 16.04%
- Tumor volume ([1]; Day 9, 5 mg/kg bid): 439.46 ± 222.47 mm^3
- Relative tumor proliferation rate T/C ([1]; Day 9, 10 mg/kg bid): 7.73%
- Tumor volume ([1]; Day 9, 10 mg/kg bid): 211.85 ± 87.87 mm^3
- Relative tumor proliferation rate T/C ([1]; Day 9, 20 mg/kg bid): 4.91%
- Tumor volume ([1]; Day 9, 20 mg/kg bid): 134.49 ± 117.51 mm^3
- Relative tumor proliferation rate T/C ([1]; Day 11, 2.5 mg/kg bid): 15.67%
- Tumor volume ([1]; Day 11, 2.5 mg/kg bid): 590.74 ± 266.98 mm^3
- Relative tumor proliferation rate T/C ([1]; Day 11, 5 mg/kg bid): 8.73%
- Tumor volume ([1]; Day 11, 5 mg/kg bid): 328.91 ± 190.07 mm^3
- Relative tumor proliferation rate T/C ([1]; Day 11, 10 mg/kg bid): 4.82%
- Tumor volume ([1]; Day 11, 10 mg/kg bid): 181.69 ± 121.62 mm^3
- Relative tumor proliferation rate T/C ([1]; Day 11, 20 mg/kg bid): 2.89%
- Tumor volume ([1]; Day 11, 20 mg/kg bid): 109.00 ± 116.94 mm^3
- TGI (tumor growth inhibition rate) ([1]; 2.5 mg/kg bid): 84.33%
- TGI (tumor growth inhibition rate) ([1]; 5 mg/kg bid): 91.27%
- TGI (tumor growth inhibition rate) ([1]; 10 mg/kg bid): 95.18%
- TGI (tumor growth inhibition rate) ([1]; 20 mg/kg bid): 97.11%
- Tumor inhibition rate (by tumor weight) ([1]; 2.5 mg/kg bid): 85.47%
- Tumor weight ([1]; 2.5 mg/kg bid): 0.25 ± 0.15 g
- Tumor inhibition rate (by tumor weight) ([1]; 5 mg/kg bid): 89.51%
- Tumor weight ([1]; 5 mg/kg bid): 0.18 ± 0.08 g
- Tumor inhibition rate (by tumor weight) ([1]; 10 mg/kg bid): 93.42%
- Tumor weight ([1]; 10 mg/kg bid): 0.12 ± 0.10 g
- Tumor inhibition rate (by tumor weight) ([1]; 20 mg/kg bid): 96.47%
- Tumor weight ([1]; 20 mg/kg bid): 0.06 ± 0.03 g
- GI50 [2]: 2.7 nM
- GI50 [3]: 2.6 nM
- GI50 [4]: 0.6 nM
- GI50 [5]: 0.8 nM
- GI50 [6]: 7.7 nM
- Apparent clearance Cl ([7]; IV, 3 mg/kg): 19.7 mL/min/kg
- Vd ([7]; male, SD, rat, plasma, IV, 3 mg/kg, read-out: Apparent volume of distribution Vd): 1.9 L/kg
- AUC(0-t) ([7]; male, SD, rat, plasma, IV, 3 mg/kg): 6.24 µM·h
- half-life ([7]; male, SD, rat, plasma, IV, 3 mg/kg, read-out: Half-life T1/2 (converted)): 1.2 h
- AUC(0-t) ([7]; male, SD, rat, plasma, PO, 10 mg/kg): 8.07 µM·h
- bioavailability ([7]; male, SD, rat, plasma, PO, 10 mg/kg, read-out: Bioavailability F %): 39%
- Cmax ([7]; male, SD, rat, plasma, PO, 10 mg/kg, read-out: Peak concentration Cmax): 1800 nM
